Experimental data: patent publication US20040258695A1, “Transferrin binding peptides and uses thereof” (priority 2003, published 2004)

T1: HRP alone (UniProt P00433 31-338)
T1 construct: Negative control probe for library 2; also called horseradish peroxidase
T1 sequence: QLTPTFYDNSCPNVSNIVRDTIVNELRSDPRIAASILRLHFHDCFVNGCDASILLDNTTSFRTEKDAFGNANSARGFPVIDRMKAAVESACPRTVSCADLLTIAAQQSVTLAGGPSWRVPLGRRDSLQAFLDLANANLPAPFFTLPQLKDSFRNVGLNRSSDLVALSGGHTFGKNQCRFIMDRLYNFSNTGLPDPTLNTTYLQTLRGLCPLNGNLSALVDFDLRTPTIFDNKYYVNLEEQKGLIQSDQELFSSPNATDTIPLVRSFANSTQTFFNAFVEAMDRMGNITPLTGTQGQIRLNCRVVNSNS

B1: M. catarrhalis TbpB N-lobe peptide kterydidanihgnr (peptide)
peptide: KTERYDIDANIHGNR
notes: SPOT peptide immobilised on cellulose membrane
B2: M. catarrhalis TbpB N-lobe peptide dfmtdvanrrnrfse (peptide)
peptide: DFMTDVANRRNRFSE
notes: as for B1
B3: M. catarrhalis TbpB N-lobe peptide gklfsnlqdrhkgnv (peptide)
peptide: GKLFSNLQDRHKGNV
notes: as for B1
B4: M. catarrhalis TbpB N-lobe peptide nfkekkltgklfsnl (peptide)
peptide: NFKEKKLTGKLFSNL
notes: as for B1
B5: M. catarrhalis TbpB N-lobe peptide wnlgpvggvfyngtt (peptide)
peptide: WNLGPVGGVFYNGTT
notes: as for B1
B6: M. catarrhalis TbpB N-lobe peptide kghwdfmtdvanrrn (peptide)
peptide: KGHWDFMTDVANRRN
notes: as for B1
B7: M. catarrhalis TbpB N-lobe peptide ydidanihgnrfrgs (peptide)
peptide: YDIDANIHGNRFRGS
notes: as for B1
B8: M. catarrhalis TbpB N-lobe peptide avkykghwdfmtdva (peptide)
peptide: AVKYKGHWDFMTDVA
notes: as for B1
B9: M. catarrhalis TbpB N-lobe peptide fsevkensqagwyyg (peptide)
peptide: FSEVKENSQAGWYYG
notes: as for B1
B10: M. catarrhalis TbpB N-lobe peptide amgygmalskinlhn (peptide)
peptide: AMGYGMALSKINLHN
notes: as for B1
B11: M. catarrhalis TbpB N-lobe peptide kkltgklfsnlqdrh (peptide)
peptide: KKLTGKLFSNLQDRH
notes: as for B1

Legend:
[1] = tested on: TbpB N-lobe from H. somnus; test: bTf C-lobe overlapping peptide library probed with HRP-labelled H. somnus TbpB N-lobe; format: binding
Description: (§1) Transferrin binding determinants from two bovine pathogens, M. haemolytica and H. somnus, as well as potential conserved transferrin binding determinants derived therefrom, were identified as described in Example 1 and shown in Table 4 below. Briefly, purified TbpB N-lobes from M. haemolytica and H. somnus were labelled with HRP and used to probe the bTf C-lobe overlapping peptide library. The peptides from the library that bound to the indicated TbpB N-lobe are listed in the column below the species name. The common overlap sequence from adjacent peptides probed with M. haemolytica (*), H. somnus (**) or both ( ) TbpB N-lobes are indicated for the indicated regions.

[2] = tested on: TbpB N-lobe from M. haemolytica; test: bTf C-lobe overlapping peptide library probed with HRP-labelled M. haemolytica TbpB N-lobe; format: binding
Description: as §1

[3] = biological target: T2, human transferrin (hTf), iron loaded (human, UniProt P02787 20-698); test: TbpB overlapping peptide library probed with labelled hTf as in Example 1
T2 construct: Used as a labelled probe (beta-gal conjugate for library 1, HRP conjugate for library 2 and the solid-phase assay); also called β-gal-hTf; HRP conjugated hTf

[4] = biological target: T2, human transferrin (hTf), iron loaded; test: SPOT peptide library 2 of TbpB N-lobe probed with HRP-hTf, chemiluminescence
[5] = biological target: T1, HRP alone; test: SPOT peptide library 2 probed with HRP alone, chemiluminescence

T2 sequence (P02787 20-698 limits assumed): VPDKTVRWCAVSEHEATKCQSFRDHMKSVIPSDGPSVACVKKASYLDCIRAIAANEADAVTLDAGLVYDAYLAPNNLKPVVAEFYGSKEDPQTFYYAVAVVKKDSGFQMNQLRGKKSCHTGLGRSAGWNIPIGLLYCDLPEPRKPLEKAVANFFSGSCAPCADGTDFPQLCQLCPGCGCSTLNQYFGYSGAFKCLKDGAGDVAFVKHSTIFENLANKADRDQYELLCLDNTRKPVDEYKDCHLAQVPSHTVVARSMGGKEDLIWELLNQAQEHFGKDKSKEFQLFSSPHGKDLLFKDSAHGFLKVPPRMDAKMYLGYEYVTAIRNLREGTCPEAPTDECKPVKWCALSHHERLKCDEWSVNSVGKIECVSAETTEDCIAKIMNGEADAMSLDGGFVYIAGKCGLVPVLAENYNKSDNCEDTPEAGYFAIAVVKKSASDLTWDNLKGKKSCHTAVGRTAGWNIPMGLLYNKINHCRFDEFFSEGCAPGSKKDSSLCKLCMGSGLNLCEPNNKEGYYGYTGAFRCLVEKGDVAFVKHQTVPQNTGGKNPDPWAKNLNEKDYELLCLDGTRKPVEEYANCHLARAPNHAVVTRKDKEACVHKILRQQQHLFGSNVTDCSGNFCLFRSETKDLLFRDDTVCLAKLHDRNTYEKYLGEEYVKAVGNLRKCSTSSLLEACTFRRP

Row | Molecule | binding to H. somnus TbpB N-lobe (bound peptide listed; None = did not bind) [1] | binding to M. haemolytica TbpB N-lobe (bound peptide listed; None = did not bind) [2] | binding result [3] | binding result [4] | binding result [5]
1 | HQERTKCDRWSGFSG (TbpB N-lobes of Bovine Pathgens) [Peptide 3, bTf C-lobe library peptide] | HQERTKCDRWSGFSG | HQERTKCDRWSGFSG |  |  | 
2 | SRKDKATCVEKILNK (TbpB N-lobes of Bovine Pathgens) [Peptide 15, bTf C-lobe library peptide] | SRKDKATCVEKILNK | None |  |  | 
3 | NSNERYYGYTGAFRC (TbpB N-lobes of Bovine Pathgens) [Peptide 6, bTf C-lobe library peptide] | NSNERYYGYTGAFRC | None |  |  | 
4 | CAIGHQERTKCDRWS (TbpB N-lobes of Bovine Pathgens) [Peptide 2, bTf C-lobe library peptide] | CAIGHQERTKCDRWS | CAIGHQERTKCDRWS |  |  | 
5 | NLKKENFEVLCKDGT (TbpB N-lobes of Bovine Pathgens) [Peptide 11, bTf C-lobe library peptide] | None | NLKKENFEVLCKDGT |  |  | 
6 | ANINWNNLKDKKSCH (TbpB N-lobes of Bovine Pathgens) [Peptide 5, bTf C-lobe library peptide] | ANINWNNLKDKKSCH | ANINWNNLKDKKSCH |  |  | 
7 | CHLARGPNHAVVSRK (TbpB N-lobes of Bovine Pathgens) [Peptide 12, bTf C-lobe library peptide] | CHLARGPNHAVVSRK | CHLARGPNHAVVSRK |  |  | 
8 | RGPNHAVVSRKDKAT (TbpB N-lobes of Bovine Pathgens) [Peptide 13, bTf C-lobe library peptide] | RGPNHAVVSRKDKAT | RGPNHAVVSRKDKAT |  |  | 
9 | AWAKNLKKENFEVLC (TbpB N-lobes of Bovine Pathgens) [Peptide 10, bTf C-lobe library peptide] | None | AWAKNLKKENFEVLC |  |  | 
10 | MVKWCAIGHQERTKC (TbpB N-lobes of Bovine Pathgens) [Peptide 1, bTf C-lobe library peptide] | MVKWCAIGHQERTKC | MVKWCAIGHQERTKC |  |  | 
11 | RYYGYTGAFRCLVEK (TbpB N-lobes of Bovine Pathgens) [Peptide 7, bTf C-lobe library peptide] | RYYGYTGAFRCLVEK | None |  |  | 
12 | RAMTNLRQCSTSKLL (TbpB N-lobes of Bovine Pathgens) [Peptide 18, bTf C-lobe library peptide] | RAMTNLRQCSTSKLL | RAMTNLRQCSTSKLL |  |  | 
13 | NTDGNNNEAWALK (NTDGNNNEAWAKNLK; TbpB N-lobes of Bovine Pathgens) [Peptide 8, bTf C-lobe library peptide] | NTDGNNNEAWALK | None |  |  | 
14 | KTSDANINWNNLKDK (TbpB N-lobes of Bovine Pathgens) [Peptide 4, bTf C-lobe library peptide] |  | KTSDANINWNNLKDK |  |  | 
15 | NNNEAWAKNLKKENF (TbpB N-lobes of Bovine Pathgens) [Peptide 9, bTf C-lobe library peptide] | NNNEAWAKNLKKENF | NNNEAWAKNLKKENF |  |  | 
16 | RDDTKCLASIAKKTY (TbpB N-lobes of Bovine Pathgens) [Peptide 16, bTf C-lobe library peptide] | RDDTKCLASIAKKTY | RDDTKCLASIAKKTY |  |  | 
17 | HAVVSRKDKATCVEK (TbpB N-lobes of Bovine Pathgens) [Peptide 14, bTf C-lobe library peptide] | HAVVSRKDKATCVEK | HAVVSRKDKATCVEK |  |  | 
18 | KCLASIAKKTYDSYL (TbpB N-lobes of Bovine Pathgens) [Peptide 17, bTf C-lobe library peptide] | KCLASIAKKTYDSYL | KCLASIAKKTYDSYL |  |  | 
19 | APNSNENRHGQKYVY (library peptide) [H. influenzae TbpB peptide APNSNENRHGQKYVY] |  |  | binds |  | 

Row | Molecule | binding to H. somnus TbpB N-lobe (bound peptide listed; None = did not bind) [1] | binding to M. haemolytica TbpB N-lobe (bound peptide listed; None = did not bind) [2] | binding result [3] | binding result [4] | binding result [5]
20 | B1 |  |  |  | binds | no binding
21 | YKGTWSFITAAENGK (library peptide) [H. influenzae TbpB peptide YKGTWSFITAAENGK] |  |  | binds |  | 
22 | B2 |  |  |  | binds | no binding
23 | B3 |  |  |  | binds | no binding
24 | TDANKSQNRTHKLYD (library peptide) [H. influenzae TbpB peptide TDANKSQNRTHKLYD] |  |  | binds |  | 
25 | B4 |  |  |  | binds | no binding
26 | B5 |  |  |  | binds | no binding
27 | B6 |  |  |  | binds | no binding
28 | B7 |  |  |  | binds | no binding
29 | RNSGGGQAYSRRSAT (library peptide) [H. influenzae TbpB peptide RNSGGGQAYSRRSAT] |  |  | binds |  | 
30 | SALPVGGVATYKGTW (library peptide) [H. influenzae TbpB peptide SALPVGGVATYKGTW] |  |  | binds |  | 
31 | B8 |  |  |  | binds | no binding
32 | B9 |  |  |  | binds | no binding
33 | B10 |  |  |  | binds | no binding
34 | AALNLFDRNKPSLLN (library peptide) [H. influenzae TbpB peptide AALNLFDRNKPSLLN] |  |  | binds |  | 
35 | B11 |  |  |  | binds | no binding
36 | IQSWSLRDLPNKKFY (library peptide) [H. influenzae TbpB peptide IQSWSLRDLPNKKFY] |  |  | binds |  | 
37 | GKFLAHDKKVLGVFS (library peptide) [H. influenzae TbpB peptide GKFLAHDKKVLGVFS] |  |  | binds |  | 
